Measurements from patent publication US10052320B2, “Substituted quinoxalines as FGFR kinase inhibitors” (ASTEX THERAPEUTICS LIMITED, priority 2011, dated 2018).
Where two headings read alike, the source gives them in different places.

Assays:
[1] = target: KDR (h) (VEGFR2) (Homo sapiens, UniProt P35968); experiment: KDR (VEGFR2) (enzymatic assay), TR-FRET; format: biochemical
In short: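 Enzyme at 150 ng/ml was incubated 120 min at room temperature with 500 nM Btn-Flt3 peptide and 3 μM ATP in 50 mM HEPES pH 7.5, 6 mM MnCl2, 1 mM DTT, 0.1 mM Na3VO4, 0.01% Triton-X-100, 1% DMSO final. EDTA stop with Eu-anti-P-Tyr/SA-XL-665, 60 min; TR-FRET read in RFU.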

[2] = target: FGFR2 (h) (Homo sapiens, UniProt P21802); experiment: FGFR2 (enzymatic assay), TR-FRET; format: biochemical; details: read-out: FGFR 2 pIC50 (converted)
Method: In a final reaction volume of 30 μL, FGFR2 (h) (150 ng/ml) was incubated with 50 mM HEPES pH 7.5, 6 mM MnCl2, 1 mM DTT, 0.1 mM Na3VO4, 0.01% Triton-X-100, 500 nM Btn-Flt3 and 0.4 μM ATP in the presence of compound (1% DMSO final). […] Time-Resolved Fluorescence Resonance Energy Transfer (TR-FRET) signal (ex340 nm. Em 620 nm, em 655 nm) was measured afterwards and results are expressed in (Relative Fluorescence Units).

[3] = tested on: Ba/F3-FGFR1-transfected cells in the presence of 10 ng/ml murine IL3; experiment: Ba/F3-FGFR1 (plus IL3) cellular proliferation counterscreen, Alamar Blue; format: cell-based; details: Mus musculus
In short: (§1)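 Cells (20000 per well in 384-well format or 10000 per well in 96-well format) in phenol red-free RPMI-1640 with 10% FBS were exposed to compound in DMSO for 24 h at 37 °C, 5% CO2. Resazurin-based Alamar Blue was then added for 4 h, and fluorescence was read at ex 540/em 590 nm.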

[4] = target: FGFR3 (h) (Homo sapiens, UniProt P22607); experiment: FGFR3 (enzymatic assay), TR-FRET; format: biochemical; details: read-out: FGFR 3 pIC50 (converted)
Method: In a final reaction volume of 30 μL, FGFR3 (h) (40 ng/ml) was incubated with 50 mM HEPES pH 7.5, 6 mM MnCl2, 1 mM DTT, 0.1 mM Na3VO4, 0.01% Triton-X-100, 500 nM Btn-Flt3 and 25 μM ATP in the presence of compound (1% DMSO final). […] Time-Resolved Fluorescence Resonance Energy Transfer (TR-FRET) signal (ex340 nm. Em 620 nm, em 655 nm) was measured afterwards and results are expressed in RFU (Relative Fluorescence Units).

[5] = target: Ba/F3-FGFR4-transfected cells (Homo sapiens, UniProt P22455); experiment: Ba/F3-FGFR4 cellular proliferation assay, Alamar Blue; format: cell-based
In short: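 Ba/F3 cells transfected with FGFR4, 20000 cells/well in phenol red-free RPMI-1640 with 10% FBS, were exposed to compound for 24 h at 37° C, 5% CO2. Alamar Blue (resazurin) was then added for 4 h, and fluorescence was read at ex 540/em 590 nm.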

[6] = target: FGFR4 (h) (Homo sapiens, UniProt P22455); experiment: FGFR4 (enzymatic assay), TR-FRET; format: biochemical; details: read-out: FGFR 4 pIC50 (converted)
Method: In a final reaction volume of 30 μL, FGFR4 (h) (60 ng/ml) was incubated with 50 mM HEPES pH 7.5, 6 mM MnCl2, 1 mM DTT, 0.1 mM Na3VO4, 0.01% Triton-X-100, 500 nM Btn-Flt3 and 5 μM ATP in the presence of compound (1% DMSO final). […] Time-Resolved Fluorescence Resonance Energy Transfer (TR-FRET) signal (ex340 nm. Em 620 nm, em 655 nm) was measured afterwards and results are expressed in RFU (Relative Fluorescence Units).

[7] = target: Ba/F3-FGFR1-transfected cells (Homo sapiens, UniProt P11362); experiment: Ba/F3-FGFR1 (minus IL3) cellular proliferation assay, Alamar Blue; format: cell-based; details: for BAF3-FGFR 1 (MIN IL3) 384 well pIC50: minus IL3, 384 well; for BAF3-FGFR 1 (MIN IL3) 96 well pIC50: minus IL3, 96 well
In short: as §1

[8] = plus IL3, 384 well, read-out: BAF3-FGFR 1 (PLUS IL3) 384 well pIC50 (converted)
[9] = plus IL3, 96 well, read-out: BAF3-FGFR 1 (PLUS IL3) 96 well pIC50 (converted)

KDR (h) (VEGFR2), sequence (P35968 20-1356): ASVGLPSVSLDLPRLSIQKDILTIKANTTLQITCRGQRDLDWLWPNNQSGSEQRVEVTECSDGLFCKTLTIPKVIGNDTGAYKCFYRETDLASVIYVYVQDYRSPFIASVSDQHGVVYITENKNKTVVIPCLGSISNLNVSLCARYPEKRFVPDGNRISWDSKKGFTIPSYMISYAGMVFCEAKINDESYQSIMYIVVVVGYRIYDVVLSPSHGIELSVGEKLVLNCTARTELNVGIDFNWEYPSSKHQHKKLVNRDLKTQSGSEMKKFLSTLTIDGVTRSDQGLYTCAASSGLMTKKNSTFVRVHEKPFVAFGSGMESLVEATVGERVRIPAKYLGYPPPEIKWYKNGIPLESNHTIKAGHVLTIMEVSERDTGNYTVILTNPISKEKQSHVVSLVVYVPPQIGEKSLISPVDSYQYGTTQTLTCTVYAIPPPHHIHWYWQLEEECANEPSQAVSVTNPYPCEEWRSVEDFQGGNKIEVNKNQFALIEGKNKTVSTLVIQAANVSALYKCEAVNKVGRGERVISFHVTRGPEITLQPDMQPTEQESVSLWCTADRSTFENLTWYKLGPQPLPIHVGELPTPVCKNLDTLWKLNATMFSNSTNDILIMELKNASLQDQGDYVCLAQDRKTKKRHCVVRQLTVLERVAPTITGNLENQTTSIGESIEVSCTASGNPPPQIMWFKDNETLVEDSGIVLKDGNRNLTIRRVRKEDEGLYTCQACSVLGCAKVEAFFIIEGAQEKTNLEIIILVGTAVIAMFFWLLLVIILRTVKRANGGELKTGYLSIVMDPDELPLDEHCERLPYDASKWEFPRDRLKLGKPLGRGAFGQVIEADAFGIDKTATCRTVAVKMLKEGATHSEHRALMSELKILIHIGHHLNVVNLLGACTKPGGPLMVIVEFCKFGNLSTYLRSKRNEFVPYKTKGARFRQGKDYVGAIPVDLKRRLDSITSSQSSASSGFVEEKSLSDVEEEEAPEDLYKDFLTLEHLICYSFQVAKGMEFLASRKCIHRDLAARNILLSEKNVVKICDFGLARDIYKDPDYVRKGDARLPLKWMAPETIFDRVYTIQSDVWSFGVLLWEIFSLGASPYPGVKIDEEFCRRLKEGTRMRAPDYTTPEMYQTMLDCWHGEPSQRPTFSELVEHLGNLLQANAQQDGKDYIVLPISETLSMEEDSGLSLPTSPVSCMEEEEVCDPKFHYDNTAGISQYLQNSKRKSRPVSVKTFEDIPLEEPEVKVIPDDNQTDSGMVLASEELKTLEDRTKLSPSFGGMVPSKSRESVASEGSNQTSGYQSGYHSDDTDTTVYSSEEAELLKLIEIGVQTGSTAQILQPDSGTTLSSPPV
Ba/F3-FGFR1-transfected cells, sequence (P11362 whole entry, change not shown): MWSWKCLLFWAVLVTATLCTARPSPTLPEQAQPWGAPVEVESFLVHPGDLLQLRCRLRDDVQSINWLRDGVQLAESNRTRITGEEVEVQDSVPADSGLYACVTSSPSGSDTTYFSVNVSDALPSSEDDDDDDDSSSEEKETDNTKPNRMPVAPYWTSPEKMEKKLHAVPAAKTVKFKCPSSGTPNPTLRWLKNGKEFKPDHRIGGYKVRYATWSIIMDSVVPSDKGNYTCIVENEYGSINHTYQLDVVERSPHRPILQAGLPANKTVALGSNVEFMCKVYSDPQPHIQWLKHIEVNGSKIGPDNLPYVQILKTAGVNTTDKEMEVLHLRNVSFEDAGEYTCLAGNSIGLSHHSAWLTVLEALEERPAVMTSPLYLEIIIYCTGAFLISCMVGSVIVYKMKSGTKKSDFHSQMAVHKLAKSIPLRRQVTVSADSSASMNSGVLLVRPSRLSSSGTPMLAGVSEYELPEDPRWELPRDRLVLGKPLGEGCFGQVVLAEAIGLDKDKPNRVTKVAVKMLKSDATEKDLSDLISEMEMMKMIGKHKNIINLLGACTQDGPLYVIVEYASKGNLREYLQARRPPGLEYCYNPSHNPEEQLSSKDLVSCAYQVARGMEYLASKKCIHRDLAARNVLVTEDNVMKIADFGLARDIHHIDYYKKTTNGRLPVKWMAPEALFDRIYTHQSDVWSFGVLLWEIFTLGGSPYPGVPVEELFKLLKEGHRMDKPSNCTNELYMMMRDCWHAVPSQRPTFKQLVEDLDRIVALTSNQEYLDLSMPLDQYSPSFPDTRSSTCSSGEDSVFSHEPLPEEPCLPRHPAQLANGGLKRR
FGFR4 (h), sequence (P22455 22-802): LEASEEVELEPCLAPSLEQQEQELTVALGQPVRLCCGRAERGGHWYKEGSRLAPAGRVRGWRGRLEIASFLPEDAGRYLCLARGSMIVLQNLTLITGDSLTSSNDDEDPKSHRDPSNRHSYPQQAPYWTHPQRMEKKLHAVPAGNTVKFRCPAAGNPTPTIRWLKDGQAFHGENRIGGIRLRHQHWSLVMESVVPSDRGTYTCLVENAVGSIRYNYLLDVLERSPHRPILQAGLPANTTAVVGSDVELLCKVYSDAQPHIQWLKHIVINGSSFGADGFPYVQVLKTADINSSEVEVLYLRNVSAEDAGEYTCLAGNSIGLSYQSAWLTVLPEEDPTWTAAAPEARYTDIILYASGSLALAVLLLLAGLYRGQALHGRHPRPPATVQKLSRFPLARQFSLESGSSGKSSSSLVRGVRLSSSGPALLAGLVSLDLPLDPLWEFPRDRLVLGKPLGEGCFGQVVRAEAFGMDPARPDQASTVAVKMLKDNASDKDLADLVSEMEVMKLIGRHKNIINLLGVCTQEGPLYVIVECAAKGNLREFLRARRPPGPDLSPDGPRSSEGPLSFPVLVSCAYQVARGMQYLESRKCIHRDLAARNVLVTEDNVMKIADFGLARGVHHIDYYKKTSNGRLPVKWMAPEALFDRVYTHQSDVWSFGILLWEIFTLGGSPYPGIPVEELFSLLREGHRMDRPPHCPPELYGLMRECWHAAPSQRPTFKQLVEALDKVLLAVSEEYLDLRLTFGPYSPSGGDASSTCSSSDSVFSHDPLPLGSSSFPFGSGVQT
FGFR2 (h), sequence (P21802 22-821): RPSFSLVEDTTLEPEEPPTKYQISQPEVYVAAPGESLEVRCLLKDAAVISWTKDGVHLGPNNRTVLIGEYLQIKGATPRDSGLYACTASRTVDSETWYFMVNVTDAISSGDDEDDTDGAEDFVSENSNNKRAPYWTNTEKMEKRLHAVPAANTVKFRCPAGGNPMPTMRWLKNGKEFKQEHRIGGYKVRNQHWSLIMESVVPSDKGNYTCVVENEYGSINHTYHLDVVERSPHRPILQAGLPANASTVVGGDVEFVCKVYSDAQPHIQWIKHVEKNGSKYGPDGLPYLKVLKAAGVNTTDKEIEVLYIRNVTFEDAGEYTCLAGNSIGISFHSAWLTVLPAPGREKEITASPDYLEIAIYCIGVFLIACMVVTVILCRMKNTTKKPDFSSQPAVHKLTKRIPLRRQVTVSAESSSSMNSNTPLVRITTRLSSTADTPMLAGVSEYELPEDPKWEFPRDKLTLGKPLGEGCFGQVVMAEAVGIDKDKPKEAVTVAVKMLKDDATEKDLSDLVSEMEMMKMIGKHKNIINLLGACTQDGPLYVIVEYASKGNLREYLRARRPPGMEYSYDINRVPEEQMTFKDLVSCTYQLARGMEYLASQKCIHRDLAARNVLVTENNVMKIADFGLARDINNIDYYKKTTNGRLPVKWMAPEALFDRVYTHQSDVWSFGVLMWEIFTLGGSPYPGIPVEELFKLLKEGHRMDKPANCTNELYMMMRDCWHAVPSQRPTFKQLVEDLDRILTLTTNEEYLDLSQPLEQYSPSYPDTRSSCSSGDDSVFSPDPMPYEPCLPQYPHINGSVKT
Ba/F3-FGFR4-transfected cells, sequence (P22455 whole entry, change not shown): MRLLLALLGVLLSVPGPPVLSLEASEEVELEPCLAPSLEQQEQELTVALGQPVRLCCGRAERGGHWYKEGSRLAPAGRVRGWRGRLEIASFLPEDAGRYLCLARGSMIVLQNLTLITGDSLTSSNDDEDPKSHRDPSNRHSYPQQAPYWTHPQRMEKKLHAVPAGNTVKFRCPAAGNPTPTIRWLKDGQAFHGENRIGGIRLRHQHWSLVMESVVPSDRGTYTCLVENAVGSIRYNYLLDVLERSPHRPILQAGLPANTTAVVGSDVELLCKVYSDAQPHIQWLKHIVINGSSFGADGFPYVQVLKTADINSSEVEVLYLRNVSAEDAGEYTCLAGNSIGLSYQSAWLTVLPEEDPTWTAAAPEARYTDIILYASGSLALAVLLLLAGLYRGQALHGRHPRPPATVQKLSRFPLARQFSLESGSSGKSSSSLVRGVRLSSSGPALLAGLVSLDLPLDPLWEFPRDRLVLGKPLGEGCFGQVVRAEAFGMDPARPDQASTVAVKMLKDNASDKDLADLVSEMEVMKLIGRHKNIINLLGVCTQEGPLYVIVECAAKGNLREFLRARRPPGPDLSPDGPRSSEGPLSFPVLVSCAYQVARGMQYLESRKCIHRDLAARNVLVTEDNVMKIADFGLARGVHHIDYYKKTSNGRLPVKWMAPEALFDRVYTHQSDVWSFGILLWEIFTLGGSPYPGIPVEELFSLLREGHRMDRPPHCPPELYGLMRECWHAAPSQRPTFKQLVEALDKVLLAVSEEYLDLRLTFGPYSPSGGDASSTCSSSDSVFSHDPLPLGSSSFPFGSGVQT

Compound | IC50 [1] [nM] | IC50 [2] [nM] | IC50 [3, 8] [nM] | IC50 [4] [nM] | BAF3-FGFR4 pIC50 [5] | IC50 [6] [nM] | BAF3-FGFR 1 (MIN IL3) 384 well pIC50 [7] | IC50 [3, 9] [nM] | BAF3-FGFR 1 (MIN IL3) 96 well pIC50 [7]
COc1cc(OC)cc(N(CCCO)c2ccc3ncc(-c4ccc(N5CCNCC5)nc4)nc3c2)c1 [Compound 48] | 110 | 4.07 | ~5250 | 3.31 | 6.5 | 15.5 | 6.92 | – | –
COc1cc(OC)cc(N(CCO)c2ccc3ncc(-c4ccccc4)nc3c2)c1 [Compound 120] | 263 | 15.1 | > 10000 | 3.98 | 6.0 | 20 | 5.71 | – | –
COc1cc(OC)cc(N(CC2CC2)c2ccc3ncc(-n4nccc4C)nc3c2)c1 [Compound 62] | > 1000 | > 1000 | > 10000 | > 1000 | <5 | > 1000 | <5 | > 10000 | <5
COc1cc(OC)cc(N(CC2CC2)c2ccc3ncc(-n4cnc(C)c4)nc3c2)c1 [Compound 30] | 501 | 67.6 | > 10000 | 26.9 | <5.35 | 214 | 5.32 | > 10000 | 5.03
COc1cc(OC)cc(N(CCO)c2ccc3ncc(-c4ccncc4)nc3c2)c1 [Compound 11] | 269 | 14.1 | > 10000 | 4.47 | 5.9 | 41.7 | 6.01 | – | –
COc1cc(OC)cc(N(CC2CC2)c2ccc3ncc(-n4ccc(C)n4)nc3c2)c1 [Compound 31] | > 1000 | > 1000 | > 10000 | 339 | <5 | 776 | <5 | > 10000 | <5
COc1cc(OC)cc(N(CC2CC2)c2ccc3ncc(-c4cn(CCN5CCOCC5)nn4)nc3c2)c1 [Compound 24] | 832 | 25.1 | > 10000 | 9.55 | ~5.1 | 191 | 5.39 | > 10000 | 5.42
COc1cc(OC)cc(N(CC2CC2)c2ccc3ncc(-c4ocnc4C)nc3c2)c1 [Compound 104] | > 1000 | ~417 | > 10000 | 117 | <5 | 575 | <5 | – | –
COc1cc(OC)cc(N(CC2CC2)c2ccc3ncc(-c4cn(CCO)nn4)nc3c2)c1 [Compound 40] | 398 | 89.1 | > 10000 | 49 | ~5.0 | 302 | 5.24 | > 10000 | 5.4
COc1cc(OC)cc(N(CCO)c2ccc3ncc(-c4cccnc4)nc3c2)c1 [Compound 9] | 295 | 17 | > 10000 | 4.68 | 5.8 | 52.5 | 6.25 | – | –
COc1cc(OC)cc(N(CC2CC2)c2ccc3ncc(-c4cnco4)nc3c2)c1 [Compound 55] | 912 | 47.9 | > 10000 | 30.9 | <5 | 275 | <5 | > 10000 | 5.37
COCCCN(c1cc(OC)cc(OC)c1)c1ccc2ncc(-c3ccn(C)c3)nc2c1 [Compound 3] | 126 | 19.5 | > 10000 | 10 | 6.4 | 38.9 | 5.91 | – | –
CNC(=O)c1cc(-c2cnc3ccc(N(CCNC(C)C)c4cc(OC)cc(OC)c4)cc3n2)ccn1 [Compound 14] | 490 | 5.62 | ~7080 | 9.55 | 6.8 | 41.7 | 6.61 | – | –
COc1cc(OC)cc(N(CCNC(C)C)c2ccc3ncc(-c4ccn(C)c4)nc3c2)c1 [Compound 8] | 20 | 2.63 | > 10000 | 2.34 | 7.2 | 3.47 | 8.13 | – | –
COc1cc(OC)cc(N(CCO)c2ccc3ncc(-c4ccnc(C(=O)NCCCN)c4)nc3c2)c1 [Compound 123] | 575 | 25.7 | > 10000 | 14.5 | 5.2 | 245 | 5.22 | – | –
COc1cc(OC)cc(N(CCCO)c2ccc3ncc(-c4ccnc(C(=O)NCCCN)c4)nc3c2)c1 [Compound 33] | 575 | 22.9 | > 10000 | 19.1 | 5.2 | 115 | 5.1 | – | –
COc1cc(OC)cc(N(CC2CC2)c2ccc3ncc(-c4ccn[nH]4)nc3c2)c1 [Compound 58] | > 1000 | 537 | > 10000 | 81.3 | <5 | 550 | – | > 10000 | <5
